The values that follow come from patent US20230190608A1, “COMPOSITIONS AND METHODS FOR IMPROVING THE APPEARANCE OF SKIN” (L'Oreal, priority 2021, published 2023).

The subject of series [1] is normal human skin samples (explants). Nature of the series: Ex vivo skin model, H&E staining (overall tissue health). Particulars: 0.003% retinol in media, 7-day culture. In kind it is cell-based.
For series [2], the system named is desmocollin-1 (DSC1) expression. Description: Ex vivo skin model, desmocollin-1 immunohistochemical staining. The following applies: 0.003% retinol in media, 7-day culture. In kind it is cell-based, human. As for the experimental part: The effect of acetyl trifluoromethylphenyl valylglycine and/or retinoids on skin turnover/desquamation, filaggrin expression, desmocollin-1 expression was evaluated in an ex vivo skin model. In this study, the effects of acetyl trifluoromethylphenyl valylglycine (0.1%), retinol (0.003%) and acetyl trifluoromethylphenyl valylglycine+retinol on the skin were evaluated by H&E (assessing for overall tissue health), filaggrin (assessing the level of barrier renewal) and desmocollin-1 (assessing the tight junction between the keratinocytes). Fresh post-abdominoplasty normal human skin samples (3 lots, age 36-59 years old, Hispanic/Caucasian/African American, female) were acquired from BioIVT Inc. (Westbury, N.Y.). Tissue was defatted and cleaned of blood residue. Explant samples were then created using a 12 mm biopsy punch. Samples were cleaned with sterile PBS. Skin biopsies not receiving treatment served as controls. Skin explants were maintained at air-liquid interface at 37° C. and 5% CO2 in four different treatment groups (n=3 per media type): • 1. […] The primary staining was followed by rabbit anti-mouse IgG or anti-rabbit Poly-HRP-IgG respectively and were detected using the Bond Polymer Refine Detection kit (DS9800, Leica Biosystems, UK). […]

Series [3] concerns filaggrin (FLG) expression. Description: Ex vivo skin model, filaggrin immunohistochemical staining. The following applies: 0.1% acetyl trifluoromethylphenyl valylglycine added to 0.003% retinol, 7-day culture. In kind it is cell-based, human. As for the experimental part:
The effect of acetyl trifluoromethylphenyl valylglycine and/or retinoids on skin turnover/desquamation, filaggrin expression, desmocollin-1 expression was evaluated in an ex vivo skin model. In this study, the effects of acetyl trifluoromethylphenyl valylglycine (0.1%), retinol (0.003%) and acetyl trifluoromethylphenyl valylglycine+retinol on the skin were evaluated by H&E (assessing for overall tissue health), filaggrin (assessing the level of barrier renewal) and desmocollin-1 (assessing the tight junction between the keratinocytes).
Fresh post-abdominoplasty normal human skin samples (3 lots, age 36-59 years old, Hispanic/Caucasian/African American, female) were acquired from BioIVT Inc. (Westbury, N.Y.). Tissue was defatted and cleaned of blood residue. Explant samples were then created using a 12 mm biopsy punch. Samples were cleaned with sterile PBS. Skin biopsies not receiving treatment served as controls. Skin explants were maintained at air-liquid interface at 37° C. and 5% CO2 in four different treatment groups (n=3 per media type): • 1. […]
Skin explants were processed for haematoxylin and eosin, and immunohistochemical staining (Reveal Biosciences, CA). […] The primary staining was followed by rabbit anti-mouse IgG or anti-rabbit Poly-HRP-IgG respectively and were detected using the Bond Polymer Refine Detection kit (DS9800, Leica Biosystems, UK). […]

The format of series [4] is in vitro ADME, human. How it is done:
Human skin samples were obtained from abdominal surgery. Excess subcutaneous fat was removed, if necessary. Skin samples were excised and cut into pieces of around 2 cm×2 cm. Thickness was measured and transepidermal water loss (TEWL) was measured. The human skin was included in the study if the TEWL was between 0.5 and 13 g/m^2/h for abdominal skin. The 2 cm^2 skin samples were kept in a static cell in a diffusion chamber in a Franz cell horizontal cell clamp system (Crown Glass Company, Inc.) and maintained at a constant temperature of 32° C.±1° C. The static cells consist of a donor chamber and a receptor chamber with a 7 mL receptor fluid compartment separated by the skin.
The cells were placed on a magnetic stirrer which was integrated with a fixed temperature water bath maintained in order to have 32° C.±1° C. at the skin surface. The receptor compartment of each cell was filled with the receptor fluid (PBS) and was continuously stirred. The skin samples were placed on the receptor compartment. The donor compartment was then placed onto the skin samples. […]
A composition containing 2 wt % acetyl trifluoromethylphenyl valylglycine was applied to the skin sample at a rate of 10 mg/cell using a positive displacement pipette and the exact amount applied was determined by weight then recorded (Sartorius Entris II Essential Analytical balance, Thermo-Fisher). […]
The skin was then stripped with consistent weight and time of application. […] The strips samples were stored with solvent (methanol) at −20° C. for a maximum of 5 days before being analyzed. […] The RS vials were stored with solvent (methanol) at −20° C. for a maximum of 7 days before being analyzed. Dermis and epidermis samples were stored with solvent at −20° C. for a maximum of 7 days before being analyzed. The receptor fluid was taken 16 hours after the application and the samples were analyzed.
Receptor fluid samples were stored at −20° C. for a maximum of 6 days before being analyzed. […] Samples were stored at −20° C. for a maximum of 5 days before being analyzed.
The final extract was analyzed by LC-MS/MS. […]

As to `CC1=C(/C=C/C(C)=C/C=C/C(C)=C/CO)C(C)(C)CCC1` [retinol], the “change in H&E” value in series [1] is listed as “some mild level of skin irritation”. For the same compound, the “expression of desmocollin-1” value in series [2] is reported as “downward expression”.

Turning to `CC(=O)N(c1cccc(C(F)(F)F)c1)C(C(=O)NCC(=O)O)C(C)C` (stereo not drawn) [acetyl trifluoromethylphenyl valylglycine], in series [3], the expression of filaggrin result is on record as “increases the expression”. Moreover, in series [4], the “amount penetrated through the stratum corneum” value is reported as “about 0.08 wt %”; the “amount penetrating past the stratum corneum barrier into epidermis, dermis and receptor fluid” value is on record as “about 0.8%”; the dermal dose result is given as “at least 0.08 wt %”.
